The text below walks through data of paper PMC10820468, “Novel Dihydrocoumarins Induced by Radiolysis as Potent Tyrosinase Inhibitors” (Molecules, 2024).

Each structure is given as a SMILES string. Bounds are passed on as bounds.

The target in experiment [1] is mushroom tyrosinase. The experiment in a line: Mushroom tyrosinase inhibition assay (L-DOPA substrate, DOPA chrome at 470 nm). To be noted: 37 °C, 30 min, pH 6.8, triplicate. The experiment is classed as biochemical. Here is the method: The tyrosinase inhibition assay was achieved according to a previously described method. Both the enzyme (tyrosinase, EC 1.14.18.1) and substrate (L-3,4-dihydroxyphenylalanine) (L-DOPA) were purchased from Sigma-Aldrich. All test compounds were first dissolved in 5% dimethyl sulfoxide (DMSO) (80 μL), and the tyrosinase inhibitory activity was evaluated at various concentrations (5 to 200 μM). The reaction mixture consisted of 40 μL of tyrosinase solution (125 unit/mL in 67 mM phosphate buffer, pH 6.8), 40 μL of L-DOPA (25 mM in 67 mM phosphate buffer, pH 6.8), and 80 μL of the test sample. After incubation at 37 °C for 30 min, the amount of released DOPA chrome was measured at 470 nm using an ELISA reader (Infinite F200, Tecan Austria GmBH, Grodig, Austria). The tyrosinase inhibition (%) was calculated, and the half-maximal inhibitory concentration (IC50) was evaluated using linear regression analysis of the inhibitory effects under the assay conditions. […] All assays were carried out in triplicate. Kinetic parameters were determined using the Lineweaver-Burk plots methods at increasing concentration of substrates and inhibitor. The data was calculated using Sigma-plot (SPCC Inc., Chicago, IL, USA).

The test system of experiment [2] is mushroom tyrosinase. Kind of experiment: Inhibition kinetics of tyrosinase-mediated L-DOPA oxidation (Lineweaver-Burk plots). The class given is biochemical. The source says:
Tyrosinase is a metalloenzyme that plays a primary role in the production of melanin from tyrosine when the skin is exposed to UV rays. Tyrosinase-related protein-1 (TRP-1) and dopachrome tautomerase (TRP-2) result in the formation of melanin as eumelanin (which appears black and brown) and pheomelanin (which appears yellow and red). Tyrosinase is present in epidermal melanocytes as well as in the pigment epithelia of the retina, iris, and ciliary body of the eye, and is one of the chief enzymes responsible for skin pigmentation in mammals. Melanin production can be inhibited by suppressing tyrosinase activity, thereby preventing the induction of melasma, freckles, and senile […]. […] Radiocatalytic hydrogenated molecules 1–4 obtained in the present study were evaluated for their inhibitory capacities toward mushroom tyrosinase. […]
The tyrosinase inhibition assay was achieved according to a previously described method. […] All test compounds were first dissolved in 5% dimethyl sulfoxide (DMSO) (80 μL), and the tyrosinase inhibitory activity was evaluated at various concentrations (5 to 200 μM). […] After incubation at 37 °C for 30 min, the amount of released DOPA chrome was measured at 470 nm using an ELISA reader (Infinite F200, Tecan Austria GmBH, Grodig, Austria). […] The data was calculated using Sigma-plot (SPCC Inc., Chicago, IL, USA).

`C[C@]1(CO)c2ccc(O)cc2OC(=O)[C@H]1CO` (relative stereo) [Compound 2, Radiocoumarone B] registered a half-maximal inhibitory concentration (IC50) in experiment [1] of 49 ± 1.3 µM.
The same measure, in the same setting: the same measure for `O=C1Oc2cc(O)ccc2[C@@](CO)(CCO)[C@@H]1CO` (relative stereo) [Compound 3, Radiocoumarone C]: 254.6 ± 2.1 µM.
As to `C[C@]1([C@@]2(C)c3ccc(O)cc3OC(=O)[C@H]2CO)c2ccc(O)cc2OC(=O)[C@H]1CO` (relative stereo) [Compound 4, Radiocoumarone D], the IC50 in experiment [1] was determined as 19.8 ± 0.5 µM. Besides, in experiment [2], the “Inhibition Type” value is recorded as “Non-competitive” and the inhibitory constant (Ki) was found to be 16 µM.
The molecule `C[C@@]1(CO)CC(=O)Oc2cc(O)ccc21` (stereo in doubt) [Compound 1, Radiocoumarone A] yielded a 50% inhibitory concentration (IC50) in experiment [1] of 143 ± 1.5 µM.
`Cc1cc(=O)oc2cc(O)ccc12` [4-MUF (5), 4-methylumbelliferone, reference compound] showed a concentration for half-maximal inhibition (IC50) in experiment [1] of over 500 µM.
